The source of these data is patent publication US20120309798A1, “Tumour Treatment Agents and Method” (Vivolux AB, priority 2009, published 2012).

Like-named read-outs stand apart in the source and are kept apart here. Where only a bound is given, the exact number is not on record here.

The test system of series [1] is ALL (Acute Lymphocytic Leukemia) patient tumor cells. The series can be described thus: Fluorometric Microculture Cytotoxicity Assay (FMCA), patient tumor samples, ALL. In kind it is cell-based. The following applies: Homo sapiens, range over n=21 samples. The text has this: (§1) Cell culture. Patient tumor samples (98) and preparations (4) of normal peripheral blood mononuclear cells (PBMC), detailed in Table 1, were used to determine the activity of VLX50 and, for comparison, six other cytotoxic drugs chosen to represent different mechanistic classes.
(§2) The tumor samples were obtained by bone marrow/peripheral blood sampling, routine surgery or diagnostic biopsy. Leukemic cells and PBMCs were isolated by 1.077 g ml-1 Ficoll-Paque centrifugation (Larsson et al., 1992). Tumor tissue from solid tumor samples was minced into small pieces and tumor cells were isolated by collagenase dispersion followed by Percoll density gradient centrifugation (Csoka et al., 1994). […] Cell viability was determined by trypan blue exclusion test and the proportion of tumor cells in the preparation was judged by inspection of May-Grunvald-Giemsa stained cytospin slides (FIG. 1a). […]
(§3) Fluorometric Microculture Cytotoxicity Assay. The Fluorometric Microculture Cytotoxicity Assay, FMCA, described in detail previously (Lindhagen et al., 2008), is based on measurement of fluorescence generated from hydrolysis of fluorescein diacetate (FDA) to fluorescein by cells with intact plasma membranes. […] Quality criteria for a successful assay included a mean coefficient of variation of less than 30% in the control and a fluorescence signal in control wells of more than 5 times the blank. […]

Series [2] deals with CLL (Chronic Lymphocytic Leukemia) patient tumor cells. In words: FMCA, patient tumor samples, CLL. It is filed as cell-based. Conditions: Homo sapiens, range over n=9 samples.
Description: as §1, §2, §3

Series [3] relates to NHL (Non-Hodgkins Lymphoma) patient tumor cells. The series can be described thus: FMCA, patient tumor samples, NHL. In kind it is cell-based. The following applies: Homo sapiens, range over n=13 samples.
Description: as §1, §2, §3

The test system of series [4] is Colon cancer patient tumor cells. In words: FMCA, patient tumor samples, colon cancer. It is filed as cell-based. Conditions: Homo sapiens.
Description: as §1, §2, §3

Series [5] concerns Assorted tumors: one appendix cancer and one pseudomyxomo peritonei. The series can be described thus: FMCA, patient tumor samples, assorted tumors. In kind it is cell-based. The following applies: Homo sapiens.
Description: as §1, §2, §3

The test system of series [6] is solid and hematological patient tumor samples. The series can be described thus: Relative effect on solid and hematological tumor samples (S/H ratio), FMCA. It is filed as cell-based, human. Conditions: n=98 patient samples; FIG. 2b.
Description: as §1, §2, §3

Series [7] has as its system cells from CLL and normal PBMC. In words: Tumor cell specificity: drug effect in CLL cells versus normal PBMC, FMCA. It is filed as cell-based, human. The following applies: PBMC n=4, CLL n=9; FIG. 2c.
Description: as §1
The tumor samples were obtained by bone marrow/peripheral blood sampling, routine surgery or diagnostic biopsy. Leukemic cells and PBMCs were isolated by 1.077 g ml-1 Ficoll-Paque centrifugation (Larsson et al., 1992). Tumor tissue from solid tumor samples was minced into small pieces and tumor cells were isolated by collagenase dispersion followed by Percoll density gradient centrifugation (Csoka et al., 1994). The sampling of primary tumor cells was approved by the local ethics committee at Uppsala University Hospital. Cell viability was determined by trypan blue exclusion test and the proportion of tumor cells in the preparation was judged by inspection of May-Grunvald-Giemsa stained cytospin slides (FIG. 1a). All samples used in this study contained more than 70% tumor cells.
Fluorometric Microculture Cytotoxicity Assay. The Fluorometric Microculture Cytotoxicity Assay, FMCA, described in detail previously (Lindhagen et al., 2008), is based on measurement of fluorescence generated from hydrolysis of fluorescein diacetate (FDA) to fluorescein by cells with intact plasma membranes. Cells were seeded in the drug-prepared 384-well plates using the pipetting robot Precision 2000 (Bio-Tek Instruments Inc., Winooski, Vt.). The number of cells per well were 2500-5000. Two columns without drugs served as controls and one column with medium only served as blank. The plates were incubated for 72 h and then transferred to an integrated HTS SAIGAN Core System consisting of an ORCA robot (Beckman Coulter) with CO2 incubator (Cytomat 2C, Kendro, Sollentuna, Sweden), dispensor module (Multidrop 384, Titertek, Huntsville, Ala.), washer module (ELx 405, Bio-Tek Instruments Inc), delidding station, plate hotels, barcode reader (Beckman Coulter), liquid handler (Biomek 2000, Beckman Coulter) and a multipurpose reader (FLUOstar Optima, BMG Labtech GmbH, Offenburg, Germany) for automated FMCA. Quality criteria for a successful assay included a mean coefficient of variation of less than 30% in the control and a fluorescence signal in control wells of more than 5 times the blank.
Dose-response data were analyzed using calculated survival index values and the software program GraphPadPrism4 (GraphPad Software Inc., San Diego, Calif., USA). Data was processed using non-linear regression to a standard sigmoidal dose-response model to obtain IC50-values (inhibitory concentration 50%).
In FIG. 2a the response rates for VLX50 at 4 μM for the patient samples are listed according to diagnoses. […] Lung cancer, AML and CML had intermediate response rates. The relative effect of VLX50 and six standard cytotoxic drugs, in solid and hematological tumor samples, expressed as the S/H ratio, is shown in FIG. 2b. […] The results for the standard drugs are consistent with their main clinical use.

For series [8], the system named is hollow fiber cultures of PHTC from ovarian carcinoma patients. The series can be described thus: In vivo hollow fiber assay, PHTC ovarian carcinoma. Also on record: species or system human. The following applies: two PHTC cultures in fibers s.c. in NMRI male mice, single dose 760 μg/mouse s.c., 6 days; P<0.05 and P<0.01. How it is done:
In vivo studies. Cells from two ovarian carcinoma patients and the cell line CEM were cultured inside semi-permeable polyvinylidene fluoride fibers and assessed by the hollow fiber assay (Friberg et al., 2005; Jonsson et al., 2000). The fibers were implanted subcutaneously into NMRI male mice (Scanbur, Sollentuna Sweden), which were treated with a single dose (0.76 mg/mouse) of VLX50 subcutaneously, or vehicle only (n=animals/group). Fibers were retrieved after 6 days and cell density evaluated (FIG. 3a) using the MTT (3-[4,5-dimethylthiazol-2-yl]-2,5-diphenyltetrazolium bromide)-assay (Alley et al. 1988). The method is based on the conversion of MTT to blue formazan crystals by living cells. The formazan was extracted by DMSO as previously described (Jonsson et al. 2000), and optical density (OD) read at 570 nm. Cell density for each fiber on retrieval day was expressed as net growth, defined as (OD retrieval day—OD implantation day)/OD implantation day, i.e. the percent change in cell density in the fibers during the 6 days of in vivo experiment. The animals were observed regarding behavior and weight gain throughout the experiment. Blood samples (200 μl) were obtained through the orbital plexus after anesthetization with isofluran just before euthanasia, and analyzed for hematological parameters. […]

For series [9], the system named is MCF-7 cell cultures. The series can be described thus: Effect of extracellular Fe on VLX50 induced cell death. In kind it is cell-based. The following applies: MCF-7, extracellular iron added.
Series [10] deals with ROS formation. In words: ROS formation. The following applies: in contrast to triapine.

Take `COCCCNC(=S)N/N=C\c1ccccn1` [VLX50, N1-(3-methoxypropyl)-2-(pyridylmethylidene)-hydrazine-1-carbothioamide]: the IC50 was 0.055 to 11.2 µM in [1]; 0.035 to 9.4 µM in [2]; 0.28 to 40 µM in series [3]; more than 40 µM in series [4] (n=6, 72 h FMCA, read-out: Median IC50); 0.49 to 40 µM in [4] (range over n=6 samples, read-out: IC50 Range); 7.8 µM in series [5] (n=2, 72 h FMCA, read-out: Median IC50). Besides, in series [5] (range over n=2 samples, read-out: IC50 Range), the IC50 was in the range of 1.6 to 13.3 µM. Moreover, the “S/H ratio (ratio between total response rates for solid and hematological samples)” value in series [6] was 0.73. Also, the “PBMC/CLL median IC50 ratio” value in series [7] turned out to be 7.6. Further, the “Growth inhibition (net growth) compared to vehicle” value in series [8] is on record as “significant growth inhibition”. In addition, in series [9], the “VLX50 activity on adding extracellular iron” value is listed as “dose-dependent decrease”. In addition, in series [10], the ROS formation result is recorded as “does not appear to induce ROS formation”.

The term IC50 denotes the concentration that gives 50% inhibition.
